Results taken from US20150217046A1, “DOSING REGIMENS FOR SUBCUTANEOUSLY INFUSIBLE ACIDIC COMPOSITIONS” (SynAgile Corporation, priority 2012, published 2015).

Tests used:
[1] = Swelling/induration and histopathology after continuous subcutaneous infusion (Example 1); type: in vivo, Yucatan minipigs; settings: for microscopic changes at infused site: pH 4.6
Excerpt: The pharmaceutical compositions were citrate buffered at pH 4.6 where most, but not all, of the LDEE is in the salt form, i.e., there is also some free base.

[2] = Infusion site reactions, intermittent and continuous subcutaneous infusion of 100 mg/mL LDEE pH 4.5 (Example 3); type: in vivo, minipigs
Excerpt: There were four treatment groups:
A: Six infusions, intermittent with ibuprofen.
B: Six infusions, intermittent with no ibuprofen.
C: Six infusions, continuous infusion with ibuprofen.
D: Six infusions, continuous infusion with no ibuprofen.

[3] = Infusion site reactions, intermittent subcutaneous infusion of 100 and 200 mg/mL LDEE pH 3.7 (Example 4); settings: for infusion site reactions, doses pooled: 14 days post-infusion; for # of Infusion Site Reactions/# of Infusion Sites: 100 mg/mL
Excerpt: Each infusion site was spaced a minimum of 2 inches (5 cm) apart from any other infusion site.

CCOC(=O)[C@@H](N)Cc1ccc(O)c(O)c1 [LDEE, levodopa ethyl ester]
swelling/induration of infused sites ([1]; 1,142 mg LDEE over 16 hours continuous s.c., 326 mg/mL and 220 mg/mL, citrate buffered pH 4.6): Most, but not all, of the infused sites were swollen and/or developed firm indurations | microscopic changes at infused site ([1]; one month after infusion of 328 mg LDEE/mL (1.45 M)): mild to moderate granulomatous inflammation of the panniculus | microscopic changes at infused site ([1]; one week after infusion of 220 mg LDEE per mL (0.98 M)): mild thrombus formation in the blood vessels of the panniculus, with minimal hemorrhage and subacute inflammation | microscopic changes at infused site ([1]; three weeks after infusion of 220 mg LDEE per mL (0.98 M), minipig A): minimal hemorrhage of the dermis and panniculus | microscopic changes at infused site ([1]; three weeks after infusion of 220 mg LDEE per mL (0.98 M), minipig B): mild granulomatous inflammation | diameter of firm swelling (infusion site reaction) ([2]; 100 mg/mL (0.44 M) LDEE pH 4.5, 281 mg over 16 h s.c.): 0.5-1.5 cm | # of Infusion Site Reactions/# of Infusion Sites ([2]; 100 mg/mL (0.44 M) LDEE pH 4.5, 281 mg over 16 h s.c., Treatment A intermittent with ibuprofen, 3 Days Post-Infusion): 2/6 | # of Infusion Site Reactions/# of Infusion Sites ([2]; 100 mg/mL (0.44 M) LDEE pH 4.5, 281 mg over 16 h s.c., Treatment A intermittent with ibuprofen, 10 Days Post-Infusion): 5/6 | # of Infusion Site Reactions/# of Infusion Sites ([2]; 100 mg/mL (0.44 M) LDEE pH 4.5, 281 mg over 16 h s.c., Treatment A intermittent with ibuprofen, 15 Days Post-Infusion): 0/6 | # of Infusion Site Reactions/# of Infusion Sites ([2]; 100 mg/mL (0.44 M) LDEE pH 4.5, 281 mg over 16 h s.c., Treatment A intermittent with ibuprofen, Immediately Post-Infusion): 0/6 | # of Infusion Site Reactions/# of Infusion Sites ([2]; 100 mg/mL (0.44 M) LDEE pH 4.5, 281 mg over 16 h s.c., Treatment B intermittent, no ibuprofen, 3 Days Post-Infusion): 1/6 | # of Infusion Site Reactions/# of Infusion Sites ([2]; 100 mg/mL (0.44 M) LDEE pH 4.5, 281 mg over 16 h s.c., Treatment B intermittent, no ibuprofen, 10 Days Post-Infusion): 1/6 | # of Infusion Site Reactions/# of Infusion Sites ([2]; 100 mg/mL (0.44 M) LDEE pH 4.5, 281 mg over 16 h s.c., Treatment B intermittent, no ibuprofen, 15 Days Post-Infusion): 0/6 | # of Infusion Site Reactions/# of Infusion Sites ([2]; 100 mg/mL (0.44 M) LDEE pH 4.5, 281 mg over 16 h s.c., Treatment B intermittent, no ibuprofen, Immediately Post-Infusion): 0/6 | # of Infusion Site Reactions/# of Infusion Sites ([2]; 100 mg/mL (0.44 M) LDEE pH 4.5, 281 mg over 16 h s.c., Treatment C continuous with ibuprofen, 3 Days Post-Infusion): 2/6 | # of Infusion Site Reactions/# of Infusion Sites ([2]; 100 mg/mL (0.44 M) LDEE pH 4.5, 281 mg over 16 h s.c., Treatment C continuous with ibuprofen, 10 Days Post-Infusion): 6/6 | # of Infusion Site Reactions/# of Infusion Sites ([2]; 100 mg/mL (0.44 M) LDEE pH 4.5, 281 mg over 16 h s.c., Treatment C continuous with ibuprofen, 15 Days Post-Infusion): 0/6 | # of Infusion Site Reactions/# of Infusion Sites ([2]; 100 mg/mL (0.44 M) LDEE pH 4.5, 281 mg over 16 h s.c., Treatment C continuous with ibuprofen, Immediately Post-Infusion): 0/6 | # of Infusion Site Reactions/# of Infusion Sites ([2]; 100 mg/mL (0.44 M) LDEE pH 4.5, 281 mg over 16 h s.c., Treatment D continuous, no ibuprofen, 3 Days Post-Infusion): 4/6 | # of Infusion Site Reactions/# of Infusion Sites ([2]; 100 mg/mL (0.44 M) LDEE pH 4.5, 281 mg over 16 h s.c., Treatment D continuous, no ibuprofen, 10 Days Post-Infusion): 1/6 | # of Infusion Site Reactions/# of Infusion Sites ([2]; 100 mg/mL (0.44 M) LDEE pH 4.5, 281 mg over 16 h s.c., Treatment D continuous, no ibuprofen, 15 Days Post-Infusion): 0/6 | # of Infusion Site Reactions/# of Infusion Sites ([2]; 100 mg/mL (0.44 M) LDEE pH 4.5, 281 mg over 16 h s.c., Treatment D continuous, no ibuprofen, Immediately Post-Infusion): 0/6 | infusion site reactions, all treatments pooled ([2]; 100 mg/mL (0.44 M) LDEE pH 4.5, 14-15 days post-infusion): 0 out of 24 | granuloma formation ([2]; 281 mg LDEE in 100 mg/mL (0.44 M), pH 4.5, 24 out of 24 infusions): no granuloma formation | infusion site reactions, doses pooled ([3]; 100 mg/mL LDEE pH 3.7): 0 out of 16 | infusion site reactions, doses pooled ([3]; 200 mg/mL LDEE pH 3.7): 5 out of 16 | tolerability of infused volume per site ([3]; LDEE pH 3.7, volumes between 0.094 and 0.37 mL per hour per site): well tolerated | # of Infusion Site Reactions/# of Infusion Sites ([3]; pH 3.7, intermittent s.c. (35 min non-delivery), 563 mg, 16 hrs, 0 hrs): 0/4 | # of Infusion Site Reactions/# of Infusion Sites ([3]; pH 3.7, intermittent s.c. (35 min non-delivery), 563 mg, 16 hrs, 12 hrs): 0/4 | # of Infusion Site Reactions/# of Infusion Sites ([3]; pH 3.7, intermittent s.c. (35 min non-delivery), 563 mg, 16 hrs, 24 hrs): 2/4 | # of Infusion Site Reactions/# of Infusion Sites ([3]; pH 3.7, intermittent s.c. (35 min non-delivery), 563 mg, 16 hrs, 3 days): 3/4 | # of Infusion Site Reactions/# of Infusion Sites ([3]; pH 3.7, intermittent s.c. (35 min non-delivery), 563 mg, 16 hrs, 7 days): 3/4 | # of Infusion Site Reactions/# of Infusion Sites ([3]; pH 3.7, intermittent s.c. (35 min non-delivery), 563 mg, 16 hrs, 14 days): 0/4 | # of Infusion Site Reactions/# of Infusion Sites ([3]; pH 3.7, intermittent s.c., 140 mg, 8 hrs, 0 hrs): 0/8 | # of Infusion Site Reactions/# of Infusion Sites ([3]; pH 3.7, intermittent s.c., 140 mg, 8 hrs, 12 hrs): 0/8 | # of Infusion Site Reactions/# of Infusion Sites ([3]; pH 3.7, intermittent s.c., 140 mg, 8 hrs, 24 hrs): 0/8 | # of Infusion Site Reactions/# of Infusion Sites ([3]; pH 3.7, intermittent s.c., 140 mg, 8 hrs, 3 days): 3/8 | # of Infusion Site Reactions/# of Infusion Sites ([3]; pH 3.7, intermittent s.c., 140 mg, 8 hrs, 7 days): 1/8 | # of Infusion Site Reactions/# of Infusion Sites ([3]; pH 3.7, intermittent s.c., 140 mg, 8 hrs, 14 days): 0/8
